Results: PubChem BioAssay AID2060883 (Molecular Pharmacology Branch, DTP, NCI, 2025)
Where “and” joins values, the source holds several entries; their conditions need not be identical. Equal entries are not always repeated.

Test system: 843782-103-R-J1-PDC complex spheroid viability
Test: Anticancer human tumor 843782-103-R-J1-PDC patient-derived lung adenocarcinoma cell line growth inhibition [RAS]
Conditions: for viability, T/C: stronger effect = lower value; active means viability on the fitted dose curve at most 10% of control; inactive means the rest
Outline: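 Multi-cell-type spheroids: tumor cells plus HUVEC endothelial cells and mesenchymal stem cells. RAS-pathway inhibitors were combined with targeted agents, each dosed in half-log steps down from clinical Cmax, or from 10 microM when Cmax was unknown.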

[1] = curve of first compound, second compound 0.000949 µM
[2] = curve of first compound, second compound 0.003 µM
[3] = curve of first compound, second compound 0.00949 µM
[4] = curve of first compound, second compound 0.03 µM
[5] = curve of first compound, second compound 0.0949 µM
[6] = curve of first compound, second compound 0.3 µM
[7] = second compound 0.000949 µM, first compound 0.0316 µM
[8] = second compound 0.000949 µM, first compound 0.1 µM
[9] = second compound 0.000949 µM, first compound 0.316 µM
[10] = second compound 0.000949 µM, first compound 1 µM
[11] = second compound 0.003 µM, first compound 0.0316 µM
[12] = second compound 0.003 µM, first compound 0.1 µM
[13] = second compound 0.003 µM, first compound 0.316 µM
[14] = second compound 0.003 µM, first compound 1 µM
[15] = second compound 0.00949 µM, first compound 0.0316 µM
[16] = second compound 0.00949 µM, first compound 0.1 µM
[17] = second compound 0.00949 µM, first compound 0.316 µM
[18] = second compound 0.00949 µM, first compound 1 µM
[19] = second compound 0.03 µM, first compound 0.0316 µM
[20] = second compound 0.03 µM, first compound 0.1 µM
[21] = second compound 0.03 µM, first compound 0.316 µM
[22] = second compound 0.03 µM, first compound 1 µM
[23] = second compound 0.0949 µM, first compound 0.0316 µM
[24] = second compound 0.0949 µM, first compound 0.1 µM
[25] = second compound 0.0949 µM, first compound 0.316 µM
[26] = second compound 0.0949 µM, first compound 1 µM
[27] = second compound 0.3 µM, first compound 0.0316 µM
[28] = second compound 0.3 µM, first compound 0.1 µM
[29] = second compound 0.3 µM, first compound 0.316 µM
[30] = second compound 0.3 µM, first compound 1 µM
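Further: viability read after seven days of compound exposure.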

CC(=O)OC12COC1CC(O)C1(C)C(=O)C(O)C3=C(C)C(OC(=O)C(O)C(NC(=O)OC(C)(C)C)c4ccccc4)CC(O)(C(OC(=O)c4ccccc4)C21)C3(C)C (stereo not drawn) + C=CC(=O)N1CCN(c2nc(OCC3CCCN3C)nc3c(F)c(-c4nc(N)cc(C)c4C(F)(F)F)c(Cl)cc23)C(C)C1
< 0.0316 µM: IC50 (curve of first compound, second compound 0.00316 µM) | IC50 (curve of first compound, second compound 0.01 µM) | IC50 (curve of first compound, second compound 0.0316 µM) | IC50 (curve of first compound, second compound 0.1 µM) | IC50 (curve of first compound, second compound 0.316 µM) | IC50 (curve of first compound, second compound 1 µM)
active: viability, T/C (second compound 0.00316 µM, first compound 0.0316 µM) 3.83% | viability, T/C (second compound 0.00316 µM, first compound 0.1 µM) 3.97% | viability, T/C (second compound 0.00316 µM, first compound 0.316 µM) 4.72% | viability, T/C (second compound 0.00316 µM, first compound 1 µM) 5.04% | viability, T/C (second compound 0.00316 µM, first compound 3.16 µM) 6.7% | viability, T/C (second compound 0.00316 µM, first compound 10 µM) 7.46% | viability, T/C (second compound 0.01 µM, first compound 0.0316 µM) 3.55% | viability, T/C (second compound 0.01 µM, first compound 0.1 µM) 5.26% | viability, T/C (second compound 0.01 µM, first compound 0.316 µM) 5.77% | viability, T/C (second compound 0.01 µM, first compound 1 µM) 5.45% | viability, T/C (second compound 0.01 µM, first compound 3.16 µM) 4.97% | viability, T/C (second compound 0.01 µM, first compound 10 µM) 8.21% | viability, T/C (second compound 0.0316 µM, first compound 0.0316 µM) 4.29% | viability, T/C (second compound 0.0316 µM, first compound 0.1 µM) 4.99% | viability, T/C (second compound 0.0316 µM, first compound 0.316 µM) 5.82% | viability, T/C (second compound 0.0316 µM, first compound 1 µM) 4.83% | viability, T/C (second compound 0.0316 µM, first compound 3.16 µM) 5.52% | viability, T/C (second compound 0.0316 µM, first compound 10 µM) 6.14% | viability, T/C (second compound 0.1 µM, first compound 0.0316 µM) 4.07% | viability, T/C (second compound 0.1 µM, first compound 0.1 µM) 4.89% | viability, T/C (second compound 0.1 µM, first compound 0.316 µM) 5.53% | viability, T/C (second compound 0.1 µM, first compound 1 µM) 6.37% | viability, T/C (second compound 0.1 µM, first compound 3.16 µM) 3.49% | viability, T/C (second compound 0.1 µM, first compound 10 µM) 6.77% | viability, T/C (second compound 0.316 µM, first compound 0.0316 µM) 3.97% | viability, T/C (second compound 0.316 µM, first compound 0.1 µM) 3.89% | viability, T/C (second compound 0.316 µM, first compound 0.316 µM) 3.73% | viability, T/C (second compound 0.316 µM, first compound 1 µM) 5.43% | viability, T/C (second compound 0.316 µM, first compound 3.16 µM) 5.26% | viability, T/C (second compound 0.316 µM, first compound 10 µM) 7.59% | viability, T/C (second compound 1 µM, first compound 0.0316 µM) 4.07% | viability, T/C (second compound 1 µM, first compound 0.1 µM) 3.8% | viability, T/C (second compound 1 µM, first compound 0.316 µM) 4.24% | viability, T/C (second compound 1 µM, first compound 1 µM) 3.62% | viability, T/C (second compound 1 µM, first compound 3.16 µM) 4.03% | viability, T/C (second compound 1 µM, first compound 10 µM) 7.53%

O=C(c1ccc(F)c(F)c1Nc1ccc(I)cc1F)N1CC(O)([C@@H]2CCCCN2)C1 + CCn1c(-c2cc(N3CCN(C)CC3)cnc2C(C)OC)c2c3cc(ccc31)-c1csc(n1)CC(NC(=O)C1CC1C)C(=O)N1CCCC(N1)C(=O)OCC(C)(C)C2
0.018 µM: IC50 [1]
active: viability, T/C [14] 10.3% | viability, T/C [17] 9.55% | viability, T/C [18] 7.11% | viability, T/C [20] 8.81% | viability, T/C [21] 8.18% | viability, T/C [22] 9.08% | viability, T/C [23] 9.11% | viability, T/C [24] 7.24% | viability, T/C [25] 7.61% | viability, T/C [26] 8.33% | viability, T/C (second compound 0.3 µM, first compound 0.01 µM) 8.56% | viability, T/C [27] 7.38% | viability, T/C [28] 6.95% | viability, T/C [29] 8.88% | viability, T/C [30] 5.35%
0.00401 µM: IC50 [2]
inactive: viability, T/C (second compound 0.000949 µM, first compound 0.00316 µM) 68.7% | viability, T/C (second compound 0.000949 µM, first compound 0.01 µM) 63.4% | viability, T/C [7] 36.7% | viability, T/C [8] 26.3% | viability, T/C [9] 19% | viability, T/C [10] 11% | viability, T/C (second compound 0.003 µM, first compound 0.00316 µM) 53% | viability, T/C (second compound 0.003 µM, first compound 0.01 µM) 37.5% | viability, T/C [11] 31.5% | viability, T/C [12] 17.7% | viability, T/C [13] 11.7% | viability, T/C (second compound 0.00949 µM, first compound 0.00316 µM) 30% | viability, T/C (second compound 0.00949 µM, first compound 0.01 µM) 19.3% | viability, T/C [15] 16.9% | viability, T/C [16] 10.9% | viability, T/C (second compound 0.03 µM, first compound 0.00316 µM) 14.8% | viability, T/C (second compound 0.03 µM, first compound 0.01 µM) 15.3% | viability, T/C [19] 10.1% | viability, T/C (second compound 0.0949 µM, first compound 0.00316 µM) 13% | viability, T/C (second compound 0.0949 µM, first compound 0.01 µM) 10.8% | viability, T/C (second compound 0.3 µM, first compound 0.00316 µM) 10.4%
< 0.00316 µM: IC50 [3] | IC50 [4] | IC50 [5] | IC50 [6]

CCN1CCN(Cc2ccc(Nc3ncc(F)c(-c4cc(F)c5nc(C)n(C(C)C)c5c4)n3)nc2)CC1
inactive: viability, T/C (compound 0.00316 µM) 105% [middle of 4 runs] | viability, T/C (compound 0.01 µM) 97.8% [middle of 4 runs] | viability, T/C (compound 0.0316 µM) 99.3% [middle of 4 runs] | viability, T/C (compound 0.1 µM) 102% (2×) and 90.9% and 101% | viability, T/C (compound 0.316 µM) 95.1% [middle of 4 runs] | viability, T/C (compound 1 µM) 70% [middle of 4 runs]
> 1 µM and 0.906 µM: IC50 (curve of compound)

CC1(O)CCCC1n1c(=O)c(C(F)F)cc2cnc(NC3CCN(S(C)(=O)=O)CC3)nc21 (stereo not drawn) + CCn1c(-c2cccnc2C(C)OC)c2c3cc(ccc31)N1CCOC(CC(NC(=O)C(C(C)C)N(C)C(=O)C3(F)CCN(C(=O)C#CC(C)(C)N(C)C)CC3)C(=O)N3CCCC(N3)C(=O)OCC(C)(C)C2)C1
0.059 µM: IC50 [1]
0.0718 µM: IC50 [3]
0.0774 µM: IC50 [2]
0.0595 µM: IC50 [6]
inactive: viability, T/C [7] 60.3% | viability, T/C [8] 41.9% | viability, T/C [9] 26.5% | viability, T/C [10] 18.6% | viability, T/C (second compound 0.000949 µM, first compound 3.16 µM) 19% | viability, T/C [11] 64.3% | viability, T/C [12] 48.8% | viability, T/C [13] 24.5% | viability, T/C [14] 22.2% | viability, T/C (second compound 0.003 µM, first compound 3.16 µM) 14.9% | viability, T/C [15] 61.6% | viability, T/C [16] 43.5% | viability, T/C [17] 32.4% | viability, T/C [18] 23.2% | viability, T/C (second compound 0.00949 µM, first compound 3.16 µM) 15.3% | viability, T/C [19] 58.2% | viability, T/C [20] 45.9% | viability, T/C [21] 28.3% | viability, T/C [22] 24.2% | viability, T/C (second compound 0.03 µM, first compound 3.16 µM) 15.5% | viability, T/C [23] 60.5% | viability, T/C [24] 50.1% | viability, T/C [25] 25.9% | viability, T/C [26] 24.4% | viability, T/C (second compound 0.0949 µM, first compound 3.16 µM) 16.4% | viability, T/C [27] 60.5% | viability, T/C [28] 43.2% | viability, T/C [29] 21.9% | viability, T/C [30] 23% | viability, T/C (second compound 0.3 µM, first compound 3.16 µM) 19.4%
0.0739 µM: IC50 [5]
0.0624 µM: IC50 [4]
active: viability, T/C (second compound 0.000949 µM, first compound 10 µM) 2.09% | viability, T/C (second compound 0.003 µM, first compound 10 µM) 2.67% | viability, T/C (second compound 0.00949 µM, first compound 10 µM) 2.34% | viability, T/C (second compound 0.03 µM, first compound 10 µM) 4.11% | viability, T/C (second compound 0.0949 µM, first compound 10 µM) 2.24% | viability, T/C (second compound 0.3 µM, first compound 10 µM) 1.76%
